Experimental findings from article PMC5438364, “A broad-spectrum bactericidal lipopeptide with anti-biofilm properties” (Scientific Reports, 2017) are described below.

As a reminder, the MIC50 is the lowest concentration that inhibits either 50% of growth or 50% of the strains tested, depending on the study.

The subject of data set [1] is cultivable oral microflora. Briefly: Bacterial killing in whole human saliva. It counts as cell-based. The conditions noted are these: within two minutes of exposure, 37 °C. The method, then: Bactericidal kinetics in saliva was assessed as follows. Whole saliva was pooled from two-three healthy volunteers at a time, after obtaining their informed consent. To test for specific activity against S. mutans, saliva was centrifuged for 5 min at 15,000 g and 4 °C, and the supernatant was spiked with 1 × 10^7 CFU/ml of mid-log-phase S. mutans 35668. Otherwise, activity against natural oral microflora was also performed on whole saliva. Saliva was mixed with the tested compound, incubated at 37 °C with shaking, and aliquots were taken at t = 0, 2, 5 and 10 min. Aliquots were subjected to serial 10-fold dilutions in saline and plated on BHI agar for enumeration.

The test system of data set [2] is Gram-positive bacteria (GPB). The following applies: 48 h.
Data set [3] can be described thus: Hydrophobicity by C18 RP-HPLC elution. The following applies: chromatographic, RP-HPLC C18 (Vydac), flow 2 ml/min, linear acetonitrile gradient 1%/min. It counts as physicochemical. The procedure: OAKs were synthesized in-house (433 A Peptide Synthesizer; Applied Biosystems, Foster City, CA, USA) by the solid-phase method using 9-fluorenylmethyloxycarbonyl (Fmoc) active-ester chemistry on 4-methylbenzhydrylamine (MBHA) resin. OAKs were then deprotected and cleaved from the resin using trifluoroacetic acid:H2O (95:5) and purified to >95% chromatographic homogeneity by reverse phase high performance liquid chromatography (RP-HPLC) using C18 column (Vydac), a flow rate of 2 ml/min and a linear acetonitrile gradient of 1%/min (Alliance; Waters, Milford, MA, USA). Peaks identity was verified by mass-spectrometry (Xevo G2 Tof; Waters, Milford, MA, USA). Purified OAKs were then lyophilized and kept as dry powder at −20 °C.

Data set [4] deals with Gram-negative bacteria (GNB). The class given is cell-based. The conditions noted are these: 24 GNB strains (seven species). An excerpt: (§1) Gram-negative bacteria tested were: ATCC strains Escherichia coli 25922, 43894, Pseudomonas aeruginosa 27853, 9027, Acinetobacter baumannii 19606, A. caloaceticus 31299, Salmonella Typhimurium 14028, Fusobacterium nucleatum 23726, Porphyromonas gingivalis 53977, clinical isolates E. coli 14182, 14384, U-16327, U-16329, P. aeruginosa 1278, Klebsiella pneumoniae 1287, K2–224, C2, A. baumannii 1279, 1280, 1281, F. nucleatum PK 1594, the engineered E. coli ML-35p and the isogenic K-12 pair AG100, AG100a (ΔacrAB). Dental related bacteria (generous gift of Prof. Doron Steinberg and Gilad Bachrach from the Hebrew University of Jerusalem) appear in bold characters.
(§2) Staphylococci, Bacilli, Escherichia, Pseudomonas, Acinetobacter, Salmonella and Klebsiella species were grown in Luria Bertani broth (LB; 5 gr/l NaCl, 5 gr/l yeast extract, 10 gr/l tryptone). Enterococci and E. coli ML-35p were grown in Tryptic Soy Broth (TSB). Listeria and Streptococci were grown in Brain Heart Infusion (BHI). All bacteria were grown over-night at 37 °C with shaking. S. mutans 35668 plated on BHI agar for enumeration was grown for 48 hr. S. mutans UA159 was grown in 5% CO2 enriched atmosphere. Fusobacterium and Porphyromonas were grown in Wilkins-Chalgren growth medium and an anaerobic atmosphere.
(§3) Minimal inhibitory concentration (MIC) was determined using the microdilution assay. Mid-log-phase bacteria at 5 × 10^5 CFU/ml were incubated in a 96-well plate with serial two-fold dilutions of the tested compound for 18–24 hr at 37 °C (final volume of 200 µl). O.D. at 620 nm was measured (Synergy HT, BioTek Instruments, Winooski, VT, USA), and the MIC was determined as the lowest concentration for which no increase in O.D. was detected.

For data set [5], the system named is Pseudomonas. The class given is cell-based. The following applies: 3 strains; microdilution, LB, 18–24 hr, 37 °C; average of at least 2 independent experiments in duplicate.
Excerpt: as §1, §2, §3

Data set [6] deals with Klebsiella. The class given is cell-based.
Excerpt: as §1, §2, §3

In data set [7] the test system is E. coli ML-35p. The experiment in a line: Outer and cytoplasmic membrane permeabilization (nitrocefin, ONPG, EtBr). The class given is cell-based, Escherichia coli. The conditions noted are these: ONPG and ethidium bromide (CM), 30 min, 37 °C. The method, then: Cytoplasmic membrane permeation to ethidium bromide (EtBr) was evaluated as follows: Mid-log-phase bacteria at 1 × 10^8 CFU/ml were centrifuged for 5 min at 15,000 g. Pellet was washed twice with PBS containing 0.5% glucose (pH = 7.4), suspended in the same buffer and incubated for 10 min at 37 °C with shaking. 180 µl of the bacterial suspension were mixed in a 96-well plate with 25 µl of the tested compound and EtBr (EtBr final concentration = 1 µg/ml) and fluorescence was recorded immediately (excitation: 535 nm, emission: 590 nm) for up to 30 min at 37 °C with shaking (Synergy HT, BioTek Instruments, Winooski, VT, USA).
Outer and cytoplasmic membrane permeation in Gram-negative bacteria was assessed using the engineered E. coli ML-35p by monitoring the chromogenic hydrolysis of two indicators: ortho-nitrophenyl-β-galactoside (ONPG) and nitrocefin. Mid-log-phase E. coli ML-35p were centrifuged for 5 min at 15,000 g and the supernatant was removed. Pellet was washed three times with sodium phosphate buffer (SPB; 10 mM NaH2PO4, pH = 7) and suspended in the same buffer (O.D. at 620 nm = 1). Bacteria were then 10-fold diluted into SPB containing 3% TSB. […] Hydrolysis of ONPG and nitrocefin was monitored immediately by recording the absorbance at 420 nm and 486 nm respectively, for 30 min at 37 °C with shaking (Synergy HT, BioTek Instruments, Winooski, VT, USA).

The test system of data set [8] is S. mutans ATCC 35668 biofilm. Briefly: Anti-biofilm activity on pre-formed biofilm. It counts as cell-based, Streptococcus mutans. The conditions noted are these: ≥0.5 mM, within one hour of exposure, inoculum 10^9 CFU/ml. The method, then:
Anti-biofilm activity was evaluated against established biofilms in 96-well plates as follows. 200 µl of mid-log-phase S. mutans 35668 at 5 × 10^5 CFU/ml in BHI containing 2% sucrose were placed in each well, and plates were incubated for 24 hr at 37 °C without shaking. Unattached cells were removed by decanting the plates and biofilms were washed three times with milliQ water. Solutions of the tested compounds were placed on the biofilms for up to 3 hr at 37 °C without shaking. Plates were decanted in 0.5 hr intervals and biofilms were washed three times with milliQ water to remove any compound residues. Biofilms were scraped from the bottom of the wells, suspended in BHI and sonicated for 5 min in a sonication bath, subjected to serial 10-fold dilutions in saline and plated on BHI agar for enumeration.

In brackets after ≈: the same amount, converted by molar mass. Where a SMILES comes first, the peptide text is derived from it. [ ]: non-standard residue; d: D form. The star is where a group is joined. Myristoyl = CCCCCCCCCCCCCC(=O)*; 12Ado = NCCCCCCCCCCCC(=O)O

Turning to `CCCCCCCCCCCCCC(=O)N[C@@H](CCCCN)C(=O)N[C@@H](CCCCN)C(=O)NCCCCCCCCCCCC(=O)N[C@@H](CCCCN)C(N)=O` [C14KKc12K] (Myristoyl-KK[12Ado]K-NH2), in data set [1], the “reduction of viability of cultivable oral microflora” value is greater than 99%. Besides, the MIC50 in data set [2] was 3 µM (≈ 2.43 µg/mL); in data set [4], 6 µM. The “H, hydrophobicity, defined as % acetonitrile eluent in C18 HPLC column” value in data set [3] was 54%. Moreover, the MIC range in data set [5] was in the range of 6.25 to 12.5 µM; in data set [6], 3.12 to 12.5 µM. For the same compound, the “concentration (MIC value) at which both OM and CM were permeabilized” value in data set [7] came out at 3 µM. The “killing of the initial inoculum in preformed biofilm” value in data set [8] is listed as greater than 99%.
